Measurements taken from US10597378B2 (priority 2017, dated 2020).
Like-named read-outs stand apart in the source and are kept apart here.

Key:
[1] = system: wild-type C57BL/6 (B6) mice; assay: Tail flick test (acute thermal pain); type: in vivo, mouse; settings: equi-antinociceptive doses, B6 mice
[2] = system: B6 mice; assay: Cardiovascular function test (tail cuff plethysmography); settings: acute, equi-antinociceptive doses
[3] = system: B6 mice; assay: Respiratory function test; settings: acute, equi-antinociceptive doses
[4] = system: mice; assay: Conditioned place preference (CPP) test, reinstatement of morphine CPP; settings: challenge on reinstatement day (Day 21)
[5] = target: T1, human mu-opioid receptor (Homo sapiens, UniProt P35372); assay: cell-based; type: cell-based
T1 construct: expressed in transfected cells; host or cells: HEK-293 (HEK-MOR), kept under G418
T1 sequence (P35372 whole entry): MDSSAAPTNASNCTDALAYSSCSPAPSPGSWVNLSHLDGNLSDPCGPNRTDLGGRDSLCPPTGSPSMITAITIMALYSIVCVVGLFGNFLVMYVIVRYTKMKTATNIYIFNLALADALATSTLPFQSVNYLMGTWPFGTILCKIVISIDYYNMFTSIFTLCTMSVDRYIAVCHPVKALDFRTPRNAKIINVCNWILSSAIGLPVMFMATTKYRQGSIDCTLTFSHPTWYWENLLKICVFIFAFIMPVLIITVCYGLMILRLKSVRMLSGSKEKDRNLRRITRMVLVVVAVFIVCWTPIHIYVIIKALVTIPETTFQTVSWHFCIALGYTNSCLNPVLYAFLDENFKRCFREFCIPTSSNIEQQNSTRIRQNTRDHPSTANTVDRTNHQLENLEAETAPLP
Procedure: Cells (72,000 per well) were plated in 100 μl/well of DMEM in 96-well solid-bottom white plates (GIBCO) and 50 μl/well of drug in HBSS in the presence of forskolin and 3-isobutyl-1-methylxanthine at final concentrations of 1 μM and 500 μM, respectively. After 30 min of incubation at room temperature, the concentration of cyclic adenosine monophosphate was determined using a LANCE Ultra cAMP Assay kit (PerkinElmer).
As MOR belongs to the GPCR family, activation of MOR leads to a decrease in intracellular cAMP level.

[6] = target: MOR (Homo sapiens, UniProt P35372); assay: cell-based; parameters: expressed in transfected cells; host or cells: CHO-K1/MOR/Ga15 cells; settings: for EC50: read-out: FLIPR Ca2+ EC50; for FLIPR Ca2+ AUC: area under the [Ca2+]i fluorescence response curve, up to 90 s
Sequence of MOR (P35372 whole entry): as above
Procedure: In an exemplary in vitro assay for identifying MOR agonists, cells that express a MOR are treated with a test compound in a cellular calcium fluorescent assay and calcium fluorescence intensity is then measured to determine whether the MOR is activated. A test compound is identified as a MOR agonist if the MOR is activated.
EC50 herein refers to the concentration of a compound that induces a response halfway between the baseline and the maximum after a specified exposure time. AUC refers to the area under the response curve, an indication of the compound's capability of activating a MOR.
One day before the assay, CORNING® black with clear flat bottom 96-well assay plates were coated with a 0.1 mg/mL Poly-L-Lysine solution. CHO-K1/MOR/Ga15 cells were suspended in the F12 medium and plated at a density of about 8×10^4 cells/well in […] medium. Cells were incubated in a humidified atmosphere of 10% CO2 at 37° C. overnight so as to reach an 80-90% confluent cell monolayer before the assay. On the day of the assay, 150 μL medium/well was removed from plate. […] Compounds and other reagents were dissolved in the assay buffer. […] The [Ca^2+]i fluorescence was measured up to 90 s after agonist injection.

**Q.** Which “time at which analgesic effects were exerted after acute injection” value [1] does the source give for CN1CC[C@]23c4c5ccc(O)c4O[C@H]2[C@@H](O)C=C[C@H]3[C@H]1C5.Cl [morphine, Morphine hydrochloride, reference compound] here?
**A.** 20 min

**Q.** What about the blood pressure [2] of the same compound?
**A.** non-significant effect on blood pressure

**Q.** What about the “heart rate (pulse)” value [2] of the same compound?
**A.** reduced from 10 to 30 min

**Q.** And the rate-pressure product [2]?
**A.** reduced from 10 to 20 min

**Q.** What about the “respiratory amplitude (tidal volume)” value [3] of the same compound?
**A.** significantly reduced respiratory amplitude (tidal volume) at 10 to 20 min

**Q.** And the respiratory frequency ([3]; 10-60 min)?
**A.** marked respiratory depression at 10 min and keep falling of respiratory frequency going through 60 min

**Q.** And the “reinstatement of morphine CPP” value [4]?
**A.** induced reinstatement of morphine CPP

**Q.** For “[Met5]enkephalin [Met-5, reference compound]”, which cAMP production [5] is on record?
**A.** significantly decreased cAMP production

**Q.** What does the source list for O=C(NCC1NCCc2ccccc21)N1CCCC1 (stereo not shown) [Compound 37, N-(1,2,3,4-Tetrahydro-1-isoquinolinylmethyl)-1-pyrrolidinecarboxamide]?
**A.** EC50 ([6]; CHO-K1/MOR/Ga15 cells): 4.02 µM; FLIPR Ca2+ AUC [6]: 3480

**Q.** With COc1ccc(C(=O)NCC2NCCc3ccccc32)cc1 (stereo not shown) [Compound 46, 4-Methoxy-N-(1,2,3,4-tetrahydro-1-isoquinolinylmethyl)benzamide] as the compound, how does the EC50 [6] read?
**A.** 0.37 µM

**Q.** How did the EC50 ([6]; CHO-K1/MOR/Ga15 cells) turn out when CC(C)(C)C(=O)NCC1c2ccccc2CCN1S(=O)(=O)c1ccc(Br)cc1OC(F)(F)F (stereo not shown) [Compound 29, N-[(2-{[4-Bromo-2-(trifluoromethoxy)phenyl]sulfonyl}-1,2,3,4-tetrahydro-1-isoquinolinyl)methyl]-2,2-dimethylpropanamide] was run?
**A.** 4.61 µM

**Q.** And the “FLIPR Ca2+ AUC” value [6]?
**A.** 12780

**Q.** Which EC50 ([6]; CHO-K1/MOR/Ga15 cells) does the source give for O=C(NCC1c2ccccc2CCN1S(=O)(=O)c1ccccc1OC(F)(F)F)C1CCCCC1 (stereo not shown) [Compound 13, N-[(2-{[2-(Trifluoromethoxy)phenyl]sulfonyl}-1,2,3,4-tetrahydro-1-isoquinolinyl)methyl]cyclohexanecarboxamide] here?
**A.** 3.31 µM

**Q.** What about the “FLIPR Ca2+ AUC” value [6] of the same compound?
**A.** 5152

**Q.** Cc1cccc(C(=O)NCC2NCCc3ccccc32)c1 (stereo not shown) [Compound 54, 3-Methyl-N-(1,2,3,4-tetrahydro-1-isoquinolinylmethyl)benzamide] was tested. Which EC50 [6] did it give?
**A.** 0.37 µM
